The source of these data is patent US20250115628A1, “FLUORINATED FLUOROPHORES” (HOWARD HUGHES MEDICAL INSTITUTE, priority 2023, published 2025).

Data set [1] deals with U2OS cells stably expressing HaloTag®-histone H2B fusion protein. Description: Loading experiments with NIR-excited HaloTag® ligands (nuclear fluorescence). The class given is cell-based. The settings on record: 200 nM; live cells expressing HaloTag®-histone H2B. The method, then: U2OS cells (ATCC) and U2OS cells stably expressing an integrated HaloTag®-histone H2B fusion protein (U2OS·H2B·HaloTag®) were cultured in Dulbecco's modified Eagle medium (DMEM, phenol red-free; Life Technologies) supplemented with 10% (v/v) fetal bovine serum (FBS, Life Technologies), 1 mM GlutaMAX (Life Technologies) and maintained at 37° C. in a humidified 5% (v/v) CO2 environment. These cell lines undergo regular mycoplasma testing by the Janelia Cell Culture Facility. For mitochondrial imaging using the HaloTag® system, U2OS cells were transiently transfected using nucleofection (Lonza) with a plasmid constitutively expressing a HaloTag®-TOMM20 fusion protein, which is located on the outer mitochondrial membrane. For 4^−color imaging, U2OS·H2B·HaloTag® stable cells were transiently transfected by nucleofection with plasmids constitutively expressing a SNAP-tag®-TOMM20 fusion protein, and a GFP-SKL (SKL: serine-lysine-leucine) fusion protein, a prototypical peroxisomal matrix targeting signal. All labeled cells were imaged 18-24 h post-transfection or post-plating.
For loading curve experiments (FIG. 15C), U2OS·H2B·HaloTag® stable cells were incubated with 200 nM HaloTag® ligand conjugated dyes (31HTL, 36HTL, 38HTL, 104HTL, 106HTL, 107HTL, and 108HTL) for 0-4 h at 37° C., washed 3× with dye-free media then fixed with 4% paraformaldehyde in 0.1 M phosphate buffer, pH 7.4 for 15 min at 37° C. Confocal imaging was performed on a Leica Stellaris with an HC PL APO 40×/1.25 glycerol objective using the tunable white light laser (WLL) to excite dyes at their λabs in constant power mode. Fluorescence was quantified as the integrated density of nuclear signals in single-plane images analyzed in FIJI;^82 n=100 nuclear signals per compound.

Data set [2] in a line: Determination of KL-Z (lactone-zwitterion equilibrium constant). The class given is physicochemical. Further details: key: KL-Z = (εdw/εmax)/(1−εdw/εmax); εdw measured in 1:1 dioxane/water. The settings on record: rhodamine derivatives; 1:1 dioxane:H2O. Here is the method: KL-Z was calculated using the following equation:^16, 18 KL-Z=(εdw/εmax)/(1−εdw/εmax). εdw is the extinction coefficient of the dyes in a 1:1 (v/v) dioxane/water solvent mixture; this dioxane/water mixture was chosen to give the maximum spread of KL-Z values across all classes of rhodamines.^18 εmax refers to the maximal extinction coefficients measured in different solvent mixtures empirically determined depending on dye type: 0.1% v/v trifluoroacetic acid in ethanol for 18, 20, 29, 34, 36, 70-72, 81-83, 93-95, 99-102, and 104; 0.1% v/v trifluoroacetic acid in 2,2,2^−trifluoroethanol for all other rhodamine variants. A accurate determination of low KL-Z values is complicated by the relatively poor sensitivity of absorbance measurements.

The nature of data set [3]: Quantum yield determination. Type of data set: physicochemical. The settings on record: rhodamine derivatives; 10 mM HEPES, pH 7.3. Here is the method:
All reported absolute fluorescence quantum yield values (Φf) were measured using a Quantaurus-QY spectrometer (model C11374, Hamamatsu). This instrument uses an integrating sphere to determine photons absorbed and emitted by a sample. Measurements were carried out using dilute samples (A<0.1), and self-absorption corrections were performed using the instrument software.^81

Data set [4] can be described thus: General UV-vis and fluorescence spectroscopy. The class given is physicochemical. The settings on record: rhodamine derivatives; 10 mM HEPES, pH 7.3. The procedure, abridged: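 Absorption and fluorescence spectra recorded in 1-cm quartz cuvettes at 22±2° C. Absorption maximum, extinction coefficient (mean of n=3) and emission maximum determined in 10 mM HEPES, pH 7.3 for rhodamines and Malachite Green derivative, or 0.1 M NaOH for fluoresceins.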

The subject of data set [5] is JM8·N4 mouse embryonic stem cells stably expressing histone H2B-HaloTag® fusion proteins. Put plainly: Single-particle tracking (SPT) experiments. Type of data set: cell-based. The settings on record: HaloTag® ligands, 50 Hz imaging. Here is the method: SPT experiments were carried out as previously described.^84 JM8·N4 mouse embryonic stem cells (ESCs) stably expressing histone H2B-HaloTag® fusion proteins were generated by co-expressing the PiggyBac EF1a-H2B-HaloTag®-IRES-Neo vector with the super piggyBac transposase as described previously,85 followed by G418 selection (500 μg/mL) for 2 weeks and verified by FACS sorting/confocal imaging staining with JF549-HaloTag® ligand (84HTL; 100 nM, 30 min). Cells were seeded on 25 mm #1.5 coverglass pre-cleaned with KOH and ethanol and coated with iMatrix-511 (TaKaRa #T304) or rhLaminin-521 (Gibco™ #A^29248) according to the manufacturers' instruction. All live-cell imaging experiments were conducted using an ESC imaging medium composed of FluoroBrite DMEM (ThermoFisher) plus 15% v/v ESC-qualified FBS, 1× GlutaMax, 1×NEAA, 0.1 mM 2^−mercaptoethanol, and LIF. For comparison of 59HTL and 89HTL (FIG. 13E, 13F) the histone H2B-HaloTag® ESCs were stained with 5 nM 59HTL for 1 h or 0.1 nM 89HTL for 15 min at 37° C. with 5% (v/v) CO2 to achieve sparse labeling with approximately equal localizations per region of interest (ROI), and then washed with dye-free media 3× for 30 min each wash For comparison of 40HTL, 44HTL, 1HTL, or 89HTL (FIG. 12A-12G) the histone H2B-HaloTag® ESCs were stained with 1 nM of HaloTag® ligands for 15 min at 37° C. with 5% (v/v) CO2 to achieve sparse labeling, and then washed with dye-free media 3× for 30 min each wash.
To quantify the brightness and photostability of the HaloTag® ligands, labeled cells were mounted onto a high speed motorized Nikon Eclipse Ti-E inverted microscope equipped with the following: 100× Apo TIRF 1.49 NA objective with a correction collar; four excitation laser lines (405/488/561/642 nm) and matching TIRF quad cube (405/488/561/640 nm reflection bands); automatic TIRF illuminator with motorized X axis and manual Y axis for beam positioning and focus: perfect focus 3 system; Triple DU-897 iXon Ultra EMCCD cameras on a Cairn Tri-cam emission splitter with filters 525/50 (GFP) 600/50 (RFP) and 705/72 (Cy5); humidified incubation chamber maintained at 37° C. with 5% v/v CO2 (Tokai Hit). SPT was performed at 100 Hz for the comparison of 59HTL and 89HTL (FIG. 13E, 13F) and 50 Hz for the comparison of 40HTL, 44HTL, 1HTL, or 89HTL (FIG. 12A-12G); the imaging session was performed for ˜5000 frames using 100% of maximal excitation power (˜120 mW at the fiber end before the TIRF unit). […] For the comparison of HaloTag® ligands 59HTL and 89HTL (FIG. 13E, 13F) and the comparison of compounds 40HTL, 44HTL, 1HTL, and […] (FIG. 12A-12G), the fluorophores were excited with a 647 nm laser. To minimize drift during imaging, the incubation chamber was fully thermally equilibrated, and all imaging was conducted in an isolated ultra-clean room with minimal mechanical vibrations. The microscope, laser lines, and camera integration were controlled using the Nikon NIS-Elements software. Cells with obvious movement during acquisition were removed from further analysis. SMT analysis was based on multiple target tracing 86 (MTT) with tracking parameters similar to previous work.^84 For SPT brightness (photon counts/molecule/s), intensity values from sparsely-labeled molecules were analyzed. For the comparison of HaloTag® ligands 59HTL and 89HTL (FIG. 13E, 13F): n=147,298 single-molecule events using 59HTL; n=100,392 single-molecule events using 89HTL. […]

For data set [6] the following is noted: fluorescein derivatives; 0.1 N NaOH; data from the inventors' published work; cited from earlier work.
The conditions of data set [7]: Hill coefficient; data from the inventors' published work; cited from earlier work.
For data set [8] the following is noted: fluorescein derivatives; 0.1 N NaOH; data from the inventors' published work; cited from earlier work. The source holds these as a separate data set.

Molecules are shown by their SMILES. Read-outs that look alike come from different tables or passages of the source.

Turning to `CC1=CC(C)(C)Nc2cc3c(cc21)C(c1c(F)c(C(=O)NCCOCCOCCCCCCCl)c(F)c(F)c1C(=O)O)=c1cc2c(cc1[Si]3(C)C)=NC(C)(C)C=C2C` [36HTL, 4^−((2^−(2^−((6^−Chlorohexyl)oxy)ethoxy)ethyl)carbamoyl)-2,3,5^−trifluoro-6-(2,2,4,8,10,10,13,13^−octamethyl-2,10,11,13^−tetrahydrosilino [3,2^−g:5,6^−g′]diquinolin-6^−ylium-6(1H)-yl)benzoate], the cellular intensity entry in data set [1] is on record as “relatively low intensity”.
Still for that read-out and setting: for `CC1=CC(C)(C)N(C)c2cc3c(cc21)C(c1c(F)c(C(=O)NCCOCCOCCCCCCCl)c(F)c(F)c1C(=O)[O-])=c1cc2c(cc1[Si]3(C)C)=[N+](C)C(C)(C)C=C2C` [38HTL, 4^−((2^−(2^−((6^−Chlorohexyl)oxy)ethoxy)ethyl)carbamoyl)-2^−(1,2,2,4,8,10,10,11,13,13-decamethyl-2,10,11,13^−tetra-hydrosilino[3,2^−g:5,6^−g′]diquinolin-6^−ylium-6(1H)-yl)-3,5,6-trifluorobenzoate] the value was “relatively low intensity”.
Still for that read-out and setting: for `CC1=CC(C)(C)N(C)c2cc3c(cc21)C(c1cc(C(=O)NCCOCCOCCCCCCCl)ccc1C(=O)[O-])=c1cc2c(cc1[Si]3(C)C)=[N+](C)C(C)(C)C=C2C` [104HTL, 4^−((2-(2^−((6^−Chlorohexyl)oxy)ethoxy)ethyl)carbamoyl)-2^−(1,2,2,4,8,10,10,11,13,13^−decamethyl-2,10,11,13^−tetra-hydrosilino[3,2^−g:5,6^−g′]diquinolin-6^−ylium-6(1H)-yl)benzoate] the value was “relatively low intensity”.
With `CN1CCc2cc3c(cc21)[Si](C)(C)c1cc2c(cc1=C3c1c(F)c(C(=O)NCCOCCOCCCCCCCl)c(F)c(F)c1C(=O)[O-])CC[N+]=2C` [108HTL, SiRF712-HaloTag® ligand], the cellular intensity result in data set [1] is reported as “second highest cellular intensity”.
For the molecule `[2H]C1([2H])N(c2ccc3c(c2)C(C)(C)C2=CC(=[N+]4C([2H])([2H])C([2H])([2H])C([2H])([2H])C4([2H])[2H])C=CC2=C3c2c(F)c(F)c(F)c(F)c2C(=O)[O-])C([2H])([2H])C([2H])([2H])C1([2H])[2H]` [compound 40, JFX637], the KL-Z in data set [2] is listed as 6.12. The same molecule displayed a Φf in data set [3] of 0.56. In addition, in data set [4], the ε is 147,000 M^−1cm^−1 and the λabs worked out at 637 nm. The “performance in SPT experiments compared with 1HTL and 89HTL” value in data set [5] is reported as “comparable performance”.
As for `CC1(C)C2=CC(=[N+]3CCC3)C=CC2=C(c2c(F)c(F)c(F)c(F)c2C(=O)[O-])c2ccc(N3CCC3)cc21` [compound 44, JF632], the KL-Z in data set [2] is recorded as 3.59. In data set [3], this molecule registered a Φf of 0.54. In data set [4], the ε was 139,000 M^−1cm^−1, the λabs worked out at 632 nm and the λem was determined as 649 nm. Also, the “performance in SPT experiments compared with 1HTL and 89HTL” value in data set [5] is “comparable performance”.
For `CC1(C)c2cc(O)ccc2C2(OC(=O)c3ccccc32)c2ccc(O)cc21` [compound 74, carbofluorescein], the Φf in data set [6] is on record as 0.62. The ηH in data set [7] is reported as 1.65. In data set [8], the ε is on record as 108,000 M^−1cm^−1, the λabs is 544 nm and the λem is 567 nm.
For `C[Si]1(C)c2cc(O)ccc2C2(OC(=O)c3ccccc32)c2ccc(O)cc21` [compound 75], the Φf in data set [6] is listed as 0.53. Also, in data set [7], the ηH was 1.69. Further, in data set [8], the ε is reported as 93,000 M^−1cm^−1, the λabs is given as 579 nm and the λem is 599 nm.
On to `CC1(C)c2cc(O)c(F)cc2C2(OC(=O)c3ccccc32)c2cc(F)c(O)cc21` [compound 78, Virginia Orange], for which the Φf in data set [6] is listed as 0.40. For the same molecule, in data set [7], the ηH is 1.46. In data set [8], the ε is on record as 90,900 M^−1cm^−1, the λabs is listed as 555 nm and the λem is recorded as 581 nm.
In the case of `C[Si]1(C)c2cc(O)c(F)cc2C2(OC(=O)c3ccccc32)c2cc(F)c(O)cc21` [compound 79], in data set [6], the Φf is recorded as 0.42. Moreover, the ηH in data set [7] was 1.30. In addition, in data set [8], the ε was 60,900 M^−1cm^−1, the λabs was 596 nm and the λem was 618 nm.
